Our source for the IC50 and Ratio IC50 values is ChEMBL document CHEMBL1152178, “Calmodulin inhibitory activity of the malbrancheamides and various analogs” (Bioorg Med Chem Lett, 2008).

The term IC50 denotes the concentration that inhibits the measured activity by half. Read a low IC50 as greater potency in that assay.

The nature of assay [1]: Inhibition of bovine brain PDE1. Further details: species or system Bos taurus.
For assay [2], the species on record is Bos taurus. The assay can be described thus: Ratio of IC50 of chlorpromazine to IC50 of compound for bovine brain PDE1.

The molecule `CC1(C)c2[nH]c3ccc(Cl)cc3c2C[C@@]23NC(=O)[C@]4(CCCN4C2=O)C[C@@H]13` displayed an IC50 in assay [1] of 31.5 µM. The Ratio IC50 in assay [2] stood at 0.4.

As to `CC1(C)c2[nH]c3cc(Cl)c(Cl)cc3c2C[C@@]23CN4CCC[C@]4(C[C@H]12)C(=O)N3`, in assay [1], the IC50 was 134 µM. In assay [2], the Ratio IC50 worked out at 0.1.

The molecule `CC1(C)c2[nH]c3ccccc3c2C[C@@]23NC(=O)[C@]4(CCCN4C2=O)C[C@H]13` came in with an IC50 in assay [1] of 23.6 µM. In addition, the Ratio IC50 in assay [2] came out at 0.7.

As to `CC1(C)c2[nH]c3ccccc3c2C[C@@]23NC(=O)[C@]4(CCCN4C2=O)C[C@@H]13`, the IC50 in assay [1] is 151 µM. Also, the Ratio IC50 in assay [2] came to 0.1.

`CC1(C)c2[nH]c3cc(Cl)c(Cl)cc3c2C[C@@]23CN4CCC[C@]4(C[C@@H]12)C(=O)N3` returned an IC50 in assay [1] of 19.3 µM. In addition, the Ratio IC50 in assay [2] stood at 0.9.

In assay [1], `CC1(C)c2[nH]c3ccc(Cl)c(Cl)c3c2C[C@@]23CN4CCC[C@]4(C[C@H]12)C(=O)N3` displayed an IC50 of 81.2 µM. The Ratio IC50 in assay [2] worked out at 0.1.

Consider `CC1(C)c2[nH]c3ccccc3c2C[C@@]23CN4CCC[C@]4(C[C@@H]12)C(=O)N3`, for which, in assay [1], the IC50 came to 35.7 µM. The Ratio IC50 in assay [2] was 0.5.

In turn, `CC1(C)c2[nH]c3cc(Cl)ccc3c2C[C@@]23NC(=O)[C@]4(CCCN4C2=O)C[C@H]13` displayed a half-maximal inhibitory concentration (IC50) in assay [1] of 42.8 µM. The Ratio IC50 in assay [2] was found to be 0.3.

Take `CC1(C)c2[nH]c3ccc(Cl)cc3c2C[C@@]23CN4CCC[C@]4(C[C@@H]12)C(=O)N3`: the IC50 in assay [1] amounted to 60.3 µM. For the same molecule, the Ratio IC50 in assay [2] stood at 0.2.

For the molecule `CC1(C)c2[nH]c3cc(Cl)ccc3c2CC23CN4CCCC4(CC21)C(=O)N3` (racemic) [D,L-MALBRANCHEAMIDE B], it took 42.9 µM to reach half-maximal inhibition in assay [1] (IC50). Moreover, the Ratio IC50 in assay [2] is 0.3.

For `CC1(C)c2[nH]c3ccc(Cl)c(Cl)c3c2C[C@@]23NC(=O)[C@]4(CCCN4C2=O)C[C@H]13`, in assay [1], 45.4 µM corresponded to half-maximal inhibition (IC50). In addition, in assay [2], the Ratio IC50 was 0.2.

`CC1(C)c2[nH]c3ccc(Cl)cc3c2C[C@@]23NC(=O)[C@]4(CCCN4C2=O)C[C@H]13` displayed an IC50 in assay [1] of 62.3 µM. Besides, in assay [2], the Ratio IC50 was found to be 0.2.

In assay [1], `CC1(C)c2[nH]c3cc(Cl)c(Cl)cc3c2C[C@@]23NC(=O)[C@]4(CCCN4C2=O)C[C@H]13` came in with an IC50 of 33.9 µM. Besides, the Ratio IC50 in assay [2] came to 0.5.

As to `CC1(C)c2[nH]c3cc(Cl)c(Cl)cc3c2C[C@@]23NC[C@]4(CCCN4C2=O)C[C@H]13`, the IC50 in assay [1] was 12 µM. In addition, the Ratio IC50 in assay [2] amounted to 0.9.

In the case of `CC1(C)c2[nH]c3cc(Cl)ccc3c2C[C@@]23CN4CCC[C@]4(C[C@@H]12)C(=O)N3` [MALBRANCHEAMIDE B], half-maximal inhibition in assay [1] (IC50) was put at 183 µM. For the same molecule, the Ratio IC50 in assay [2] was 0.1.

Take `CC1(C)c2[nH]c3cc(Cl)c(Cl)cc3c2C[C@@]23NC(=O)[C@]4(CCCN4C2=O)C[C@@H]13`: inhibition in assay [1] was half-maximal at 18.6 µM (IC50). The Ratio IC50 in assay [2] was 0.9.

In assay [1], `CC1(C)c2[nH]c3cc(Cl)ccc3c2C[C@@]23NC(=O)[C@]4(CCCN4C2=O)C[C@@H]13` came in with an IC50 of 61.8 µM. Also, the Ratio IC50 in assay [2] is 0.2.

As for `CC1(C)c2[nH]c3cc(Cl)c(Cl)cc3c2CC23CN4CCCC4(CC21)C(=O)N3` (racemic), in assay [1], half-maximal inhibition (IC50) required 16 µM. Moreover, the Ratio IC50 in assay [2] turned out to be 1.1.

Consider `CC1(C)c2[nH]c3ccc(Cl)c(Cl)c3c2C[C@@]23NC[C@]4(CCCN4C2=O)C[C@H]13`, for which the IC50 in assay [1] came to 27.5 µM. Also, the Ratio IC50 in assay [2] is 0.4.
